Data set [1] relates to HBEGF (Heparin-binding EGF-like growth factor). Kind of data set: Gene array qPCR, human dermal equivalent: HBEGF. Type of data set: cell-based. The conditions noted are these: 1.0% 4AR in DMSO, human skin equivalent, 24 hours, mRNA by qPCR. An excerpt: (§1) In this gene array experiment, we examined the ability of 4AR at a one percent concentration in DMSO (where 100% DMSO served as the vehicle) to either stimulate or inhibit several important genes and quantify directly the transcribed messenger RNA (mRNA) levels by Taqman real time PCR. The test material was placed onto a biological barrier (human dermal equivalent) using a MatTek “ready-to-use” in vitro organotypic tissue equivalent, based on well-documented and validated protocols, using the EpiDerm™ Model EPI-200 Kit. The MatTek kits uses normal (non-transformed) donated human cells as the basis for all of its tissue equivalents. These cells are grown (cultured) in standard Millipore Millicell™ Single Well Tissue Culture Plate Inserts at the air liquid interface or ALI. Apical (top) surface of tissue is exposed to air allowing for direct application of test articles. […] Once the 4 AR test material penetrated the human skin barrier equivalent the gene chip was activated and subsequently mRNA levels were quantified and the results represent stimulation or inhibition of a specific gene.
(§2) To investigate the effects of 4AR on the expression of genes associated with the extracellular matrix (ECM) of the skin, qPCR experiments were conducted using the tissue cultures (model system described above) with subsequent quantification of mRNA levels from […] tissue/cells. […]

The subject of data set [2] is Fibrillin. Kind of data set: Gene array qPCR, human dermal equivalent: Fibrillin. Type of data set: cell-based. Conditions: 1.0% 4AR in DMSO, human skin equivalent, 24 hours, mRNA by qPCR.
Excerpt: as §1, §2
Background: Quantitative PCR measures a nucleic acid by following its amplification.

In data set [3] the test system is JunD. Briefly: Gene array qPCR, human dermal equivalent: JunD. The format is cell-based. The conditions noted are these: 1.0% 4AR in DMSO, human skin equivalent, 24 hours, mRNA by qPCR.
Excerpt: as §1, §2

Data set [4] concerns Metallothionein 2. Briefly: Gene array qPCR, human dermal equivalent: Metallothionein 2. The format is cell-based. The conditions noted are these: 1.0% 4AR in DMSO, human skin equivalent, 24 hours, mRNA by qPCR.
Excerpt: as §1, §2

Data set [5] concerns TGF (transforming growth factor) beta. Kind of data set: Gene array qPCR, human dermal equivalent: TGF beta. The format is cell-based. Conditions: 1.0% 4AR in DMSO, human skin equivalent, 24 hours, mRNA by qPCR.
Excerpt: as §1, §2

In data set [6] the test system is Metallothionein 1. Kind of data set: Gene array qPCR, human dermal equivalent: Metallothionein 1. The format is cell-based. The conditions noted are these: 1.0% 4AR in DMSO, human skin equivalent, 24 hours, mRNA by qPCR.
Excerpt: as §1, §2

The test system of data set [7] is Desmoglein 3. Kind of data set: Gene array qPCR, human dermal equivalent: Desmoglein 3. Type of data set: cell-based. The conditions noted are these: 1.0% 4AR in DMSO, human skin equivalent, 24 hours, mRNA by qPCR.
Excerpt: as §1, §2

Data set [8] relates to COX 2 (PTGS2). Kind of data set: Gene array qPCR, human dermal equivalent: COX 2. The format is cell-based. Conditions: 1.0% 4AR in DMSO, human skin equivalent, 24 hours, mRNA by qPCR.
Excerpt: as §1, §2

For data set [9], the system named is SIRT1 (Sirtuin 1). Kind of data set: Gene array qPCR, human dermal equivalent: SIRT1. Type of data set: cell-based. Conditions: 1.0% 4AR in DMSO, human skin equivalent, 24 hours.
Excerpt: as §1, §2

Data set [10] deals with Protein Kinase C alpha. Briefly: Gene array qPCR, human dermal equivalent: Protein Kinase C alpha. The conditions noted are these: 1.0% 4AR in DMSO, human skin equivalent, 24 hours, mRNA by qPCR. The format is cell-based.
Excerpt: as §1, §2

Data set [11] relates to Fos (FBJ murine osteosarcoma viral oncogene). Briefly: Gene array qPCR, human dermal equivalent: Fos. Type of data set: cell-based. The conditions noted are these: 1.0% 4AR in DMSO, human skin equivalent, 24 hours, mRNA by qPCR.
Excerpt: as §1, §2

A short description of data set [12]: Shelf-life stability of the synthesized material. The format is physicochemical. An excerpt: The synthetic method described above uses a direct, efficient synthesis at a low cost, and results in improved stability (longer shelf life) where it remains a white crystalline material for over 2 years, as well as higher biological activity (increase absorption, lower dose and longer half-life) with various cosmetic, nutraceuticals (nutritional supplements) and pharmaceutical applications, including (a) anti-aging, anti-oxidant, (b) anti-inflammatory, (c) anti-cancer, (d) neuroprotection (for improved brain health), (e) cardiovascular health, (f) prostate health and (g) skin health, as described below in the following examples.

For data set [13], the system named is FosB (FBJ murine osteosarcoma viral oncogene homolog B). Briefly: Gene array qPCR, human dermal equivalent: FosB. The conditions noted are these: 1.0% 4AR in DMSO, human skin equivalent, 24 hours, mRNA by qPCR. The format is cell-based.
Excerpt: as §1, §2

Data set [14] has as its system Superoxide dismutase 2, mitochondrial. Kind of data set: Gene array qPCR, human dermal equivalent: SOD2. The format is cell-based. Conditions: 1.0% 4AR in DMSO, human skin equivalent, 24 hours, mRNA by qPCR.
Excerpt: as §1, §2

In data set [15] the test system is TNFRSF1A (Tumor necrosis factor receptor superfamily, member 1A). Kind of data set: Gene array qPCR, human dermal equivalent: TNFRSF1A. Type of data set: cell-based. The conditions noted are these: 1.0% 4AR in DMSO, human skin equivalent, 24 hours, mRNA by qPCR.
Excerpt: as §1, §2

The test system of data set [16] is Type IV collagen alpha 1. Kind of data set: Gene array qPCR, human dermal equivalent: Type IV collagen alpha 1. The format is cell-based. Conditions: 1.0% 4AR in DMSO, human skin equivalent, 24 hours, mRNA by qPCR.
Excerpt: as §1, §2

Data set [17] has as its system Laminin 1B. Kind of data set: Gene array qPCR, human dermal equivalent: Laminin 1B. Conditions: 1.0% 4AR in DMSO, human skin equivalent, 24 hours, mRNA by qPCR. The format is cell-based.
Excerpt: as §1, §2

Data set [18] deals with IL-8 (interleukin 8). Briefly: Gene array qPCR, human dermal equivalent: IL-8. Type of data set: cell-based. The conditions noted are these: 1.0% 4AR in DMSO, human skin equivalent, 24 hours, mRNA by qPCR.
Excerpt: as §1, §2

In data set [19] the test system is Tissue inhibitor of metalloproteinases 1. Briefly: Gene array qPCR, human dermal equivalent: TIMP1. The format is cell-based. Conditions: 1.0% 4AR in DMSO, human skin equivalent, 24 hours, mRNA by qPCR.
Excerpt: as §1, §2

Data set [20] has as its system Desmocollin 1. Kind of data set: Gene array qPCR, human dermal equivalent: Desmocollin 1. Type of data set: cell-based. The conditions noted are these: 1.0% 4AR in DMSO, human skin equivalent, 24 hours, mRNA by qPCR.
Excerpt: as §1, §2

Data set [21] relates to human dermal monolayer fibroblasts. Briefly: Collagen deposition by ELISA for Human Type I collagen C-terminal propeptide. The conditions noted are these: approximately 9 μM, 48 hours, vehicle 0.1% DMSO. The format is cell-based. Here is the method: 4′-Acetoxy-resveratrol was tested to determine whether it can stimulate collagen deposition in human monolayer dermal fibroblasts in the following examples. In this assay, we first determined the toxicity of the test materials (untreated cells, positive control-ascorbate, vehicle=0.1% DMSO, and a range of the 4′-acetoxy-resveratrol molecule, from approximately 10 nM to 10 μM).
The human dermal monolayer fibroblasts were exposed to the test materials for approximately 48 hours. Thereafter, the samples were processed for MTT and collagen deposition, etc.
Collagen deposition by ELISA for Human Type I collagen C-terminal propeptide was determined. Dermal fibroblasts synthesize primarily type I collagen, and the cleavage of the C-terminal propeptide is required for deposition into fibrils within the extracellular matrix. […] The amount of cleaved propeptide is directly proportional to the amount of type I collagen deposited, and can be precisely quantified using purified standards and a commercial ELISA kit (Takara Mirus, Inc., Cat. # TAK-MK-101). After 48 hours in the presence of the test materials or controls, culture medium supernatants were removed and immediately analyzed using the ELISA kit according to manufacturer's instructions using a Molecular Devices Vmax plate 96 well plate reader and SoftMax software. […]

The subject of data set [22] is Catalase. Kind of data set: Gene array qPCR, human dermal equivalent: Catalase. Type of data set: cell-based. Conditions: 1.0% 4AR in DMSO, human skin equivalent, 24 hours, mRNA by qPCR.
Excerpt: as §1, §2

The test system of data set [23] is TGF (transforming growth factor) beta type II receptor. Kind of data set: Gene array qPCR, human dermal equivalent: TGF beta type II receptor. Type of data set: cell-based. Conditions: 1.0% 4AR in DMSO, human skin equivalent, 24 hours, mRNA by qPCR.
Excerpt: as §1, §2

Data set [24] deals with S100 Calcium binding protein A9. Briefly: Gene array qPCR, human dermal equivalent: S100 A9. Type of data set: cell-based. The conditions noted are these: 1.0% 4AR in DMSO, human skin equivalent, 24 hours, mRNA by qPCR.
Excerpt: as §1, §2

In the case of `CC(=O)Oc1ccc(C=Cc2cc(O)cc(O)c2)cc1` [4AR, 3,5-dihydroxy-4′-acetoxy stilbene], in data set [1], the “HBEGF increased by” value is 1.9-fold. For the same compound, the “Fibrillin increased by” value in data set [2] was 1.3-fold with. The “JunD increased by” value in [3] is listed as 2.1-fold. The “Metallothionein 2 increased by” value in [4] is on record as 3.4-fold. For the same compound, the “TGF beta increased by” value in [5] was 2.0-fold. In addition, in [6], the “Metallothionein 1 increased by” value is listed as 64.0-fold. In addition, the “Desmoglein 3 decreased by” value in [7] is listed as “by 1.9-fold”. Further, the “COX 2 decreased by” value in data set [8] is listed as 1.7-fold. In addition, the “SIRT1 mRNA expression increased by” value in [9] is 3.3-fold. The “Protein Kinase C alpha increased by” value in [10] is 2.7-fold. Besides, the “Fos increased by” value in [11] is on record as 3.4-fold. In addition, in [12], the “stability (shelf life): remains a white crystalline material” value was “over 2 years”. Besides, the “FosB increased by” value in data set [13] was 8.2-fold. Further, the “Superoxide dismutase 2, mitochondrial increased by” value in data set [14] is reported as 1.7-fold. The “TNFRSF1A decreased by” value in data set [15] is given as 1.4-fold. Besides, the “Type IV collagen alpha 1 increased by” value in [16] is 1.7-fold. Moreover, the “Laminin 1B increased by” value in data set [17] is reported as 1.4-fold with. Further, in data set [18], the “IL-8 decreased by” value is 3.8-fold. Further, the “Tissue inhibitor of metalloproteinases 1 increased by” value in data set [19] was 2.5-fold. Moreover, the “Desmocollin 1 decreased by” value in data set [20] is “by 2.4-fold”. The “increase of collagen deposition compared to vehicle control” value in data set [21] is 65%. In addition, the “Catalase increased by” value in [22] is reported as 1.6-fold. In addition, the “TGF beta type II receptor increased by” value in data set [23] was 1.7-fold. The “S100 Calcium binding protein A9 decreased by” value in data set [24] is given as 1.6-fold.

Source of the values: patent US20130123357A1, “Methods for Providing Enhanced Resveratrol Activity Using 4-Acetoxy-Resveratrol” (BRIGHAM YOUNG UNIVERSITY, priority 2010, published 2013).
